The subject of the assay is MkC1qDC. Put plainly: hemagglutination inhibition, fixed human group […] erythrocytes, two-fold dilutions. In kind it is cell-based, Modiolus kurilensis. To be noted: Ca2+-dependent lectin activity, 0.1 mg/mL protein, titer decline by one two-fold dilution, also given as 1.16 mg/mL.

In general, IC50 refers to the concentration at which inhibition is half-maximal.

With `OC[C@H]1OC(O)C[C@@H](O)[C@H]1O` (stereo partly drawn) [2-deoxy-D-galactose], the IC50 (also printed as 2.46 mg/mL) is 15 mM. Consider `OC[C@H]1O[C@H](O[C@@H]2C(O)O[C@H](CO)[C@@H](O)[C@@H]2O)[C@@H](O)[C@@H](O)[C@@H]1O` (stereo partly drawn) [2α- mannobiose], for which, under “also printed as 10.26 mg/mL”, the IC50 was 30 mM. With `OC[C@H]1OC(O)[C@H](O)[C@@H](O)[C@H]1O` (stereo partly drawn) [D-galactose], for the setting “also printed as 5.40 mg/mL”, the IC50 stood at 30 mM. As to `O=C(O)[C@H]1OC(O)[C@H](O)[C@@H](O)[C@H]1O` (stereo partly drawn) [D-galacturonic acid], the half-maximal inhibitory concentration (IC50) (also printed as 1.46 mg/mL) amounted to 7.5 mM. On the same count and under the same terms, to `O=C(O)[C@H]1OC(O)[C@H](O)[C@@H](O)[C@@H]1O` (stereo partly drawn) [D-glucuronic acid] belongs 7.5 mM. For `OC[C@H]1O[C@@H](O[C@H]2[C@H](O)[C@@H](O)C(O)O[C@@H]2CO)[C@H](O)[C@@H](O)[C@H]1O` (stereo partly drawn) [D-lactose], the half-inhibitory concentration (IC50) (also printed as 5.13 mg/mL) amounted to 15 mM. For the compound `OC[C@@H]1OC(O)[C@@H](O)[C@@H](O)[C@@H]1O` (stereo partly drawn) [L-gulose], the IC50 (also printed as 1.35 mg/mL) is 7.5 mM. Regarding `CC(=O)N[C@H]1[C@H]([C@H](O)[C@H](O)CO)OC(O)(C(=O)O)C[C@@H]1O` (some centres unmarked) [N-acetylneuraminic (sialic) acid], the concentration for half-maximal inhibition (IC50) is 3.75 mM.

Values taken from article PMC8706970, “A Novel C1q Domain-Containing Protein Isolated from the Mollusk Modiolus kurilensis Recognizing Glycans Enriched with Acidic Galactans and Mannans” (Marine Drugs, 2021).
